{
  "source": "patent US12022827B2",
  "about": "“Compositions and methods to reduce dicamba volatility and provide plant essential nutrients” (THE BOARD OF TRUSTEES OF THE UNIVERSITY OF ARKANSAS, priority 2019, dated 2024)",
  "key": {"[1]": {"tested_on": "soybean glufosinate-resistant cultivar (CDZ 4938)", "assay": "Low-tunnel field trial of dicamba volatilization, visible injury to soybean bioindicator (2020)", "type": "in vivo", "description": "To further evaluate the efficacy of potassium tetraborate tetrahydrate in reducing volatilization of dicamba, a series of low-tunnel trials were conducted in Fayetteville, Arkansas in 2020, with each trial replicated twice. Experimental treatments were arranged as a single-factor randomized complete block design with three replications. […] A glufosinate-resistant cultivar (CDZ 4938) was planted on 36-inch spaced rows, serving as a bioindicator to quantify visible injury and distance traveled caused by dicamba volatility. Each low-tunnel placed in the field measured 5 by 20 ft (covering two rows of soybean). All tunnels were covered with transparent plastic to create an environment suitable for volatility and to contain the injury. After all tunnels were placed in the field, moistened flats of soil were placed 0.5 miles from the field and treated. Once treated, two flats were placed into appropriate tunnels between two rows of soybean with one flat on either side of a high-volume air sampler located in the center of each tunnel for 48 hours. Afterwards, the flats of soil, air samplers and tunnels were removed from the field. Immediately following trial initiation, pH of each spray solution was collected and analyzed. For data collection, soybean under each tunnel were divided into […] of 5 foot in length where visible injury was assessed on a 0 to 100 scale, where 0 equals no injury and 100 equals plant death. […] All data were subjected to analysis of variance and means separated using Fisher's protected least significance test (α=0.05)"}, "[2]": {"details": "Kborate concentration of 0.025 molar, even when mixed with the potassium salt of glyphosate", "description": "To further evaluate the efficacy of potassium tetraborate tetrahydrate in reducing volatilization of dicamba, a series of low-tunnel trials were conducted in Fayetteville, Arkansas in 2020, with each trial replicated twice. Experimental treatments were arranged as a single-factor randomized complete block design with three replications. […] A glufosinate-resistant cultivar (CDZ 4938) was planted on 36-inch spaced rows, serving as a bioindicator to quantify visible injury and distance traveled caused by dicamba volatility. Each low-tunnel placed in the field measured 5 by 20 ft (covering two rows of soybean). All tunnels were covered with transparent plastic to create an environment suitable for volatility and to contain the injury. After all tunnels were placed in the field, moistened flats of soil were placed 0.5 miles from the field and treated. Once treated, two flats were placed into appropriate tunnels between two rows of soybean with one flat on either side of a high-volume air sampler located in the center of each tunnel for 48 hours. […] Immediately following trial initiation, pH of each spray solution was collected and analyzed. For data collection, soybean under each tunnel were divided into eight quadrants of 5 foot in length where visible injury was assessed on a 0 to 100 scale, where 0 equals no injury and 100 equals plant death. […]"}, "[3]": {"assay": "pH of tank mix, 2019 field trial", "type": "physicochemical", "description": "(§1) A field trial was conducted to determine the effect of adding potassium borate to the herbicide dicamba with respect to the volatilization of dicamba and the movement of dicamba within the environment. In this trial, potassium borate was added to two highly volatile formulations of dicamba, Clarity® (BASF) and Clash™ (Nufarm Americas, Inc), in combination with glyphosate (Roundup PowerMax II®). […] The formulations were applied to a moistened silt loam soil in contained in two plastic trays and placed under 20-foot long tunnels between two rows of dicamba-sensitive (i.e., non-tolerant) soybean crop. […] Soybean injury was visually assessed at 14 and 21 days after initiation of the experiment. Likewise, the distance from the center of the tunnel to the furthest observed 5% level of injury was measured. Air samplers in the center of each tunnel were also used to quantify dicamba volatilization. […]\n(§2) In order to evaluate a proprietary volatility reducing agent on several dicamba formulations, two low-tunnel trials were conducted in Fayetteville, Arkansas in 2019. […] Dicamba products evaluated included the diglycolamine (DGA) salt of dicamba (Xtendimax) plus a commercial volatility reduction agent (VaporGrip), DGA salt of dicamba (Clarity) with the volatility reduction agent BK3O3, the dimethylamine (DMA) salt of dicamba (Vanquish), and the DMA salt with BK3O3 along with a nontreated. […]"}, "[4]": {"tested_on": "dicamba-sensitive soybean", "assay": "Low-tunnel field trial of dicamba volatilization, injury to dicamba-sensitive soybean (2019)", "type": "in vivo", "details": "FIG. 1", "description": "as §1, §2"}},
  "data": [
    {"compound": "potassium tetraborate tetrahydrate [Kborate]", "values": [
      {"measurement": "reducing volatility of dicamba based on injury to soybean, compared with Kacetate", "setting": "[1]; 0.015 molar concentration of Kborate", "value": "comparable to 0.05 moles of Kacetate"},
      {"measurement": "reducing volatility of a dicamba plus glyphosate mixture, compared with Kacetate", "setting": "[1]; FIGS. 8-10, 21 days after treatment", "value": "outperformed Kacetate"},
      {"measurement": "dicamba volatility of dicamba and glufosinate mixtures", "setting": "[1]; Kborate added, FIGS. 11-13, 21 days after treatment", "value": "reduced dicamba volatility, more so than did Kacetate"},
      {"measurement": "volatilization of a dicamba plus glyphosate mixture based on average and maximum injury ratings and distance to 5% injury to soybean", "setting": "[1]; Kborate concentrations of 0.0125 molar or higher, 21 days after treatment, FIGS. 5-7", "value": "significantly reduced volatilization"},
      {"measurement": "pH of the spray solution", "setting": "[2]", "value": "above 6.0"}
    ]},
    {"compound": "[K+].[K+].[K+].[O-]B([O-])[O-]", "note": "[potassium borate]", "values": [
      {"measurement": "increase in tank mix pH", "setting": "[3]; potassium borate 30 g/L added to various formulations of dicamba mixed with glyphosate", "value": "1.9-2.15"},
      {"measurement": "increase of pH of tank mixes", "setting": "[3]; potassium borate added to tank mixes comprising glyphosate and various formulations of dicamba", "value": "≤ 2.15", "unit": "pH units"},
      {"measurement": "reduction of sensitive soybean injury", "setting": "[4]; potassium borate 30 g/L added, compared to standard tank mixes of dicamba or dicamba+glyphosate", "value": "≤ 18", "unit": "%"},
      {"measurement": "reduction of injury to sensitive soybean", "setting": "[4]; potassium borate added to dicamba, compared to standard tank mixes of dicamba", "value": "≤ 18", "unit": "percentage points"}
    ]},
    {"compound": "CP(=O)(O)CCC(N)C(=O)O", "note": "(stereo not shown) [glufosinate, 2-amino-4-[hydroxy(methyl)phosphoryl]butanoic acid, reference compound]", "values": [
      {"measurement": "average visual injury to soybean in comparison to dicamba plus glyphosate", "setting": "[1]; glufosinate mixed with dicamba, FIG. 11, 21 days after treatment", "value": "increased average visual injury"}
    ]}
  ]
}
